Experiments:
HCV replicon 1a = test: Cell-based HCV 1a RNA replicon assay; conditions: Hepatitis C virus, 72 h; Huh-7-derived replicon cells, 3 day incubation, HCV RNA by RT-PCR
Method: (§1) These cells were used to establish a sensitive HCV RNA replication cell-based assay for testing candidate test compounds.
(§2) Huh7 cells that stably maintain a subgenomic HCV replicon were established as previously described (Lohman et al. 1999; WO 02/052015). The cells were seeded into a 96 well cell culture cluster at 1×10^4 cells per well in DMEM complemented with 10% FBS, PenStrep (Life Technologies) and […] Geneticin. Cells were incubated in a 5% CO2 incubator at 37° C. until addition of various concentrations of the test compound.
(§3) The test compound was prepared for use in the assay as follows. The test compound in 100% DMSO was added diluted in assay Medium for a final DMSO concentration of 0.5% and the solution was sonicated for 15 min and filtered through a […] Millipore Filter Unit. Serial dilutions of the test compounds were prepared using Assay Medium (containing 0.5% DMSO).
(§4) Cell culture medium was aspirated from the 96-well plate containing the cells and the appropriate dilution of test compound in assay medium was transferred to independent wells of the cell culture plate which was incubated at 37° with 5% CO2.
(§5) Following a 3 day-incubation period, the cells were washed with PBS and total cellular RNA was extracted with the RNeasy Mini Kit® and Qiashredder® from Qiagen. RNA from each well was eluted in 50 μL of H2O. RNA was quantified by optical density at 260 nm on the Cary 1E® UV-Visible spectrophotometer. The HCV RNA replicon copy number was evaluated by real-time RT-PCR with the Abi Prism® 7700 Sequence Detection System. The TAQMAN E® RT-PCR kit provides a system for the detection and analysis of RNA. Direct detection of the reverse transcription polymerase chain reaction (RT-PCR) product with no downstream processing was accomplished by monitoring the increase in fluorescence of a dye-labeled DNA probe. The nucleotide sequence of both primers and probe was located in the 5′ region of the HCV genome. The replicon copy number was then evaluated using a standard curve made with known amounts of replicon copy (supplemented with 50 ng of wild type Huh-7 RNA) assayed in the same reaction mix. The following thermal cycle parameters were used for the RT-PCR reaction on the ABI Prism® 7700 Sequence Detection System. Conditions were optimized for HCV detection. Quantification is based on the threshold cycle, where the amplification plot crosses a defined fluorescence threshold. Comparison of the threshold cycles provides a highly sensitive measure of relative template concentration in different samples. Monitoring during early cycles, when PCR fidelity is at its highest, provides precise data for accurate quantification. The relative template concentration can be converted to real numbers by using the standard curve of HCV with known number of copy.
(§6) The level of inhibition (% inhibition) of each well containing test compound was calculated with the following equation (CN═HCV Replicon copy number): [formula]
(§7) The calculated % inhibition values were then used to determine EC50, slope factor (n) and maximum inhibition (Imax) by the non-linear regression routine NLIN procedure of SAS using the following equation: [formula]

HCV replicon 1b = test: Cell-based HCV 1b RNA replicon assay; conditions: Hepatitis C virus, 72 h; Huh-7-derived replicon cells, 3 day incubation, HCV RNA by RT-PCR
Method: as §1, §2, §3, §4, §5, §6, §7

| SMILES | EC50 (HCV replicon 1a) | EC50 (HCV replicon 1b) |
| --- | --- | --- |
| COc1ccc2c(O[C@@H]3C[C@H]4C(=O)N[C@]5(C(=O)NS(=O)(=O)C6CC6)CC5/C=C\CCCCC[C@H](NC(=O)OC5CCCC5)C(=O)N4C3)cc(-c3csc(NC(C)C)n3)nc2c1 (stereo partly drawn) | 0.7 nM | 1.1 nM |
| COc1ccc2c(O[C@@H]3C[C@H]4C(=O)N[C@]5(C(=O)NS(C)(=O)=O)CC5/C=C\CCCCC[C@H](NC(=O)OC5CCCC5)C(=O)N4C3)cc(-c3csc(NC(C)C)n3)nc2c1 (stereo partly drawn) [VII] | 3.2 nM | 3.3 nM |
| COc1ccc2c(O[C@@H]3C[C@H]4C(=O)N[C@]5(C(=O)NS(=O)(=O)c6ccccc6)CC5/C=C\CCCCC[C@H](NC(=O)OC5CCCC5)C(=O)N4C3)cc(-c3csc(NC(C)C)n3)nc2c1 (stereo partly drawn) [VI] | 2.2 nM | 3 nM |
